Source: US20130261130A1, “NEUROTRYPSIN INHIBITORS” (priority 2010, published 2013)

Target: T1, human neurotrypsin (Homo sapiens, UniProt P56730)
T1 sequence (P56730 21-875): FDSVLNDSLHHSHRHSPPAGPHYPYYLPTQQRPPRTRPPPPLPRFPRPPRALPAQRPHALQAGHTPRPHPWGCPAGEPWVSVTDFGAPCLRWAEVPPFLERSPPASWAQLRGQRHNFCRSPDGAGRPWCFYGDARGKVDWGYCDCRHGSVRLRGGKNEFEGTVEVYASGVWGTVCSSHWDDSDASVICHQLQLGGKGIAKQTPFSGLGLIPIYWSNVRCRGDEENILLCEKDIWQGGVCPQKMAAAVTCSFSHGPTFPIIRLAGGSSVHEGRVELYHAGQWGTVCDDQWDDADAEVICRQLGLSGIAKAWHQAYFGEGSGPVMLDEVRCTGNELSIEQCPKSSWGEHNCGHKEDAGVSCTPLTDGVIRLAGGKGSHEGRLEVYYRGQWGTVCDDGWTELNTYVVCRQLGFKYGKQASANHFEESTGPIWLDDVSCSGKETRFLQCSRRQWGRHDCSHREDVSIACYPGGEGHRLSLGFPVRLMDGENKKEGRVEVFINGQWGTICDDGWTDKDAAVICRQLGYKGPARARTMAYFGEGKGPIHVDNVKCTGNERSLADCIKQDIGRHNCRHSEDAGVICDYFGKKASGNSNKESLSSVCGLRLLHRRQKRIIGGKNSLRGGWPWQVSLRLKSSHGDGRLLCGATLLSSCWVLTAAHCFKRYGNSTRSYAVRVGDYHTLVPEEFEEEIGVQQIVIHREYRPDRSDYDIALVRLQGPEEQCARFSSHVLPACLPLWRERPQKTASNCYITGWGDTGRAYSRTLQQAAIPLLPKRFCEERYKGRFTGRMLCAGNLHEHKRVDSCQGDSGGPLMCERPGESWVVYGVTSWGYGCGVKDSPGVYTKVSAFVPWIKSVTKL
Assay: Determination of IC50 for human neurotrypsin
Type: biochemical
Settings: human neurotrypsin; method of WO 2006/1103261; read-out: Neurotrypsin IC50
Experimental: Assessment of the potency of compounds of examples 1-311 in inhibiting the enzymatic activity of human neurotrypsin was performed according to the method described in patent application WO 2006/1103261

IC50 | SMILES
7.5 µM | O=C(Nc1ccccc1F)c1ccc(NC(=O)c2[nH]c3ccc(Cl)cc3c2-c2ccccc2)c(C(=O)O)c1 [Example 139]
0.9 µM | O=C(Nc1ccc(Cl)cc1F)c1ccc(NC(=O)c2[nH]c3ccc(Cl)cc3c2-c2ccccc2)c(C(=O)O)c1 [Example 140]
1.9 µM | O=C(Nc1ccc(C(=O)N2CCC(Cc3ccc(F)cc3)CC2)cc1C(=O)O)c1ccc(-c2nc3cc(Cl)c(Cl)cc3[nH]2)cc1 [Example 141, 2-(4-(5,6-Dichloro-1H-benzo[d]imidazol-2-yl)benzamido)-5-(4-(4-fluorobenzyl)piperidine-1-carbonyl)benzoic acid]
2.2 µM | COc1ccc2c(Cl)c(C(=O)Nc3cc(C(=O)Nc4ccc(Cl)cc4)ccc3C(=O)O)sc2c1 [Example 142, 2-(3-Chloro-6-methoxy-benzo[b]thiophene-2-carbox)-4-(4-chlorophenylcarbamoyl)-benzoic acid]
3.9 µM | O=C(Nc1ccc(Cl)cc1)c1ccc(C(=O)O)c(NC(=O)c2cc(Br)cc(Br)c2O)c1 [Example 143, 4-(4-Chlorophenyl-carbamoyl)-2-(3,5-dibromo-2-hydroxybenzamido)benzoic acid]
22.1 µM | O=C(Nc1ccc(Cl)cc1)c1ccc(C(=O)O)c(NC(=O)c2ccc(-c3ccccn3)s2)c1 [Example 144, 4-(4-Chlorophenyl-carbamoyl)-2-(5-(pyrid-2-yl)-thiophene-2-carboxamido)-benzoic acid]
4.3 µM | O=C(NCc1ccc(Cl)cc1)c1ccc(C(=O)O)c(NC(=O)c2sc3ccccc3c2Cl)c1 [Example 148, 2-(3-Chloro-benzo[b]-thiophene-2-carboxamido)-4-(4-chlorobenzylcarbamoyl)-benzoic acid]
16.5 µM | O=C(Nc1ccccn1)c1ccc(C(=O)O)c(NC(=O)c2sc3ccccc3c2Cl)c1 [Example 149, 2-(3-Chloro-benzo[b]-thiophene-2-carboxamido)-4-(pyridin-2-ylcarbamoyl)-benzoic acid]
2.7 µM | O=C(O)c1ccc(C(=O)N2CCC(O)(c3ccc(Cl)c(C(F)(F)F)c3)CC2)cc1NC(=O)c1sc2ccccc2c1Cl [Example 151, 4-(4-(4-Chloro-3-(trifluoro-methyl)phenyl)-4-hydroxy-piperidine-1-carbonyl)-2-(3-chlorobenzo[b]thiophene-2-carboxamido)benzoic acid]
4.7 µM | CCOC(=O)CN(C(=O)c1ccc(C(=O)O)c(NC(=O)c2sc3ccccc3c2Cl)c1)c1ccc(Cl)cc1 [Example 156, 2-(3-Chlorobenzo[b]-thiophene-2-carboxamido)-4-(N-(4-chlorophenyl)-N-(ethoxycarbonylmethyl)-carbamoyl)benzoic acid]
3.8 µM | O=C(O)c1cc(C(=O)N2CCC(Cc3ccccc3)CC2)ccc1NC(=O)c1sc2ccccc2c1Cl [Example 157, 5-(4-Benzylpiperidine-1-carbonyl)-2-(3-chlorobenzo[b]thiophene-2-carboxamido)benzoic acid]
3.8 µM | O=C(Nc1ccc(C(=O)N2CCC(Cc3ccccc3)CC2)cc1C(=O)O)c1cc2ccc(Cl)cc2s1 [Example 158, 5-(4-Benzylpiperidine-1-carbonyl)-2-(6-chloro-benzo[b]thiophene-2-carboxamido)benzoic acid]
6.5 µM | O=C(NC1Cc2ccccc2C1)c1ccc(NC(=O)c2sc3ccccc3c2Cl)c(C(=O)O)c1 [Example 159, 2-(3-Chlorobenzo[b]-thiophene-2-carboxamido)-5-(indan-2-ylcarbamoyl)benzoic acid]
3.9 µM | O=C(Nc1ccc(C(=O)N2CCC(Oc3ccccc3)CC2)cc1C(=O)O)c1cc2ccc(Cl)cc2s1 [Example 160, 2-(6-Chlorobenzo[b]thiophene-2-carboxamido)-5-(4-phenoxypiperidine-1-carbonyl)benzoic acid]
3 µM | O=C(Nc1ccc(C(=O)N2CCC(Cc3ccccc3)CC2)cc1C(=O)O)c1ccc(-c2ccc(Cl)cc2)s1 [Example 161, 5-(4-Benzylpiperidine-1-carbonyl)-2-(5-(4-chloro-phenyl)thiophene-2-carboxamido)benzoic acid]
4.5 µM | O=C(Nc1ccc(C(=O)N2CCC(Oc3ccccc3)CC2)cc1C(=O)O)c1ccc(-c2ccc(Cl)cc2)s1 [Example 162, 2-(5-(4-Chlorophenyl)-thiophene-2-carboxamido)-5-(4-phenoxypiperidine-1-carbonyl)benzoic acid]
2.6 µM | O=C(Nc1ccc(C(=O)N2CCC(c3ccccc3)CC2)cc1C(=O)O)c1cc2ccc(Cl)cc2s1 [Example 163, 2-(6-Chlorobenzo[b]-thiophene-2-carboxamido)-5-(4-phenylpiperidine-1-carbonyl)benzoic acid]
3.5 µM | O=C(Nc1ccc(C(=O)N2CCC(Cc3ccc(Cl)cc3)CC2)cc1C(=O)O)c1cc2ccc(Cl)cc2s1 [Example 164, 2-(6-Chlorobenzo[b]-thiophene-2-carboxamido)-5-(4-(4-chlorobenzyl)piperidine-1-carbonyl)benzoic acid]
8.9 µM | O=C(NCc1c(F)cccc1F)c1ccc(NC(=O)c2cc3ccc(Cl)cc3s2)c(C(=O)O)c1 [Example 165, 2-(6-Chlorobenzo[b]-thiophene-2-carboxamido)-5-(2,6-difluorobenzyl-carbamoyl)benzoic acid]
6.8 µM | O=C(O)c1ccc(C(=O)Nc2ccc(Cl)cc2)c(NC(=O)c2sc3ccccc3c2Cl)c1 [Example 188, 3-(3-Chlorobenzo[b]-thiophene-2-carboxamido)-4-(4-chlorophenylcarbamoyl)-benzoic acid]

IC50 | SMILES
10.2 µM | O=C(O)c1ccc(C(=O)Nc2ccc(Cc3ccccc3)cc2)c(NC(=O)c2sccc2Cl)c1 [Example 196, 4-(4-Benzylphenyl-carbamoyl)-3-(3-chloro-thiophene-2-carboxamido)-benzoic acid]
40.8 µM | O=C(O)c1ccc(NC(=O)c2ccc(Cl)s2)c(C(=O)Nc2ccc(Cl)cc2)c1 [Example 218, 3-(4-Chlorophenyl-carbamoyl)-4-(5-chloro-thiophene-2-carboxamido)-benzoic acid]
3.7 µM | O=C(Nc1ccc(Cl)cc1)c1ccc(-c2nn[nH]n2)c(NC(=O)c2sc3ccccc3c2Cl)c1 [Example 229, 3-Chloro-benzo[b]thiophene-2-carboxylic acid [5-(4-chloro-phenyl-carbamoyl)-2-(2H-tetrazol-5-yl)phenyl]amide]
98.4 µM | O=C(O)c1ccc(/C=C/Cc2ccccc2)cc1NC(=O)c1sc2ccccc2c1Cl [Example 246]
> 150 µM | O=C(O)c1ccc(C#Cc2ccc(Cl)cc2)cc1NC(=O)c1sc2ccccc2c1Cl [Example 248]
2.8 µM | COc1ccc(-c2ccc(C(=O)O)c(NC(=O)c3sc4ccccc4c3Cl)c2)cc1 [Example 249]
2.4 µM | O=C(O)c1ccc(-c2ccccc2Cl)cc1NC(=O)c1sc2ccccc2c1Cl [Example 250]
3.1 µM | N#Cc1ccc(-c2ccc(C(=O)O)c(NC(=O)c3sc4ccccc4c3Cl)c2)cc1 [Example 255]
3.8 µM | O=C(O)c1ccc(-c2cn(-c3ccc(Cl)cc3)nn2)cc1NC(=O)c1sc2ccccc2c1Cl [Example 257, 2-(3-Chlorobenzo[b]thiophene-2-carboxamido)-4-(1-(4-chlorophenyl)-1H-1,2,3-triazol-4-yl)benzoic acid]
9.4 µM | O=C(O)c1ccc(-c2cn(Cc3ccccc3)nn2)cc1NC(=O)c1sc2ccccc2c1Cl [Example 258]
11 µM | O=C(O)c1ccc(-c2cn(Cc3c(F)cccc3F)nn2)cc1NC(=O)c1sc2ccccc2c1Cl [Example 260]
5.5 µM | O=C(O)c1ccc(-c2cn(-c3ccc(Cl)c(C(F)(F)F)c3)nn2)cc1NC(=O)c1sc2ccccc2c1Cl [Example 261]
7 µM | O=C(O)c1ccc(-c2cn(Cc3ccc(Cl)s3)nn2)cc1NC(=O)c1sc2ccccc2c1Cl [Example 262]
4 µM | O=C(O)c1cc(-c2cn(-c3ccc(Cl)cc3)nn2)ccc1NC(=O)c1sc2ccccc2c1Cl [Example 263]
3.7 µM | COc1ccc(-c2ccc(C(=O)O)c(NC(=O)c3ccc(-c4nc5cc(Cl)c(Cl)cc5[nH]4)cc3)c2)cc1 [Example 266]
0.5 µM | N#Cc1ccc(-c2ccc(C(=O)O)c(NC(=O)c3ccc(-c4nc5cc(Cl)c(Cl)cc5[nH]4)cc3)c2)cc1 [Example 267]
22.9 µM | O=C(O)c1cc(NC(=O)c2sc3ccccc3c2Cl)ccc1C(=O)Nc1ccc(Cl)cc1 [Example 270, 5-(3-Chlorobenzo[b]thiophene-2-carboxamido)-2-(4-chlorophenyl-carbamoyl)benzoic acid]
14.2 µM | O=C(O)c1cc(NC(=O)c2sc3ccccc3c2Cl)ccc1C(=O)Nc1ccc(Cl)cc1 [Example 271]
7.6 µM | O=C(Nc1ccc(C(=O)O)c(NC(=O)c2sc3ccccc3c2Cl)c1)c1ccc(Cl)cc1 [Example 273]
6.6 µM | O=C(Nc1ccc(C(=O)O)c(NC(=O)c2sc3ccccc3c2Cl)c1)c1ccc(Cl)s1 [Example 274]
